Drawing on US20260285853A1, “COMPOUNDS AND METHODS FOR MODULATING SPLICING” (REMIX THERAPEUTICS INC., priority 2023, published 2026), this text covers IC50, AC50 and GI50 for twelve molecules.

Holding throughout (assay type): cell-based
Assay [1] concerns HTT mRNA. Nature of the assay: Gene panel canonical junction qPCR assay, decrease in CJ mRNA, Table 3. The following applies: decrease in CJ mRNA levels, canonical junction qPCR, gene panel. The procedure, abridged: (§1)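 Canonical exon-junction (CJ) transcript measured by 5′ nuclease RT-qPCR, normalized to GAPDH, GUSB or PPIA and to DMSO control (2^(−ΔΔCt)). A673 or K562 cells treated 24 h at 37° C with an 11-point 3-fold dilution series, top 10 uM, DMSO ≤0.25%. IC50 from 4-parameter logistic fit of percentage CJ decrease.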
(In general: In qPCR the cycle at which signal appears reflects the starting amount.)

The test system of assay [2] is MYB mRNA. The description is as above. The following applies: decrease in CJ mRNA levels, canonical junction qPCR, gene panel. The method, boiled down: as §1
For assay [3], the system named is HTT mRNA. Nature of the assay: Splicing RT-qPCR assay (THP), Table 2A. The following applies: Table 2A, THP; for AC50: HTT alternative junction (AJ) mRNA, read-out: HTT AJ (AC50, increase in alternative junction mRNA); for IC50: HTT canonical junction (CJ) mRNA, read-out: HTT CJ (IC50, decrease in canonical junction mRNA).
Assay [4] deals with MYB mRNA. The experiment in a line: Splicing RT-qPCR assay (THP), Table 2A. The following applies: Table 2A, THP; for AC50: MYB alternative junction (AJ) mRNA, read-out: MYB AJ (AC50, increase in alternative junction mRNA); for IC50: MYB canonical junction (CJ) mRNA, read-out: MYB CJ (IC50, decrease in canonical junction mRNA).
The test system of assay [5] is SH-SY5Y (human neuroblastoma) cells. The experiment in a line: Cell viability, Cell Titer Glo 2.0 assay. Conditions: read-out: Viability SHSY5Y.3 GI50. The procedure, abridged:
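SH-SY5Y cells were exposed to serially diluted compounds in IMDM with 10% FBS and 0.1% DMSO for 72 hours at 37° C., 5% CO2. Viability was measured by CellTiter-Glo 2.0 luminescence, with medium-only wells as blank.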
Background: ATP-based viability assays read luminescence as a measure of living cells.

With `COc1c(NC(=O)c2ccc(N3CCC(NC4CC4)CC3)c3c2OCO3)cn2cc(C)nc2c1F` [Compound 650, 7-[4-(cyclopropylamino)-1-piperidyl]-N-(8-fluoro-7-methoxy-2-methyl-imidazo[1,2-a]pyridin-6-yl)-1,3-benzodioxole-4-carboxamide], the IC50 in assay [1], in assay [2], in assay [3] and in assay [4] was under 0.1 µM in each case. The results for the AC50 in assay [3] and in assay [4] were 0.1 to 1 µM and under 0.1 µM, respectively. The GI50 in assay [5] was 0.1 to 1 µM.

In the case of `Cc1cn2cc(NC(=O)c3ccc(N4C[C@@H](C)N[C@@H](C)C4)c4c3OC(F)(F)O4)cc(F)c2n1` [Compound 651, 7-[(3R,5S)-3,5-dimethylpiperazin-1-yl]-2,2-difluoro-N-(8-fluoro-2-methylimidazo[1,2-a]-pyridin-6-yl)-1,3-benzodioxole-4-carboxamide], the concentration for half-maximal inhibition (IC50) in assay [1], in assay [2], in assay [3] and in assay [4] was over 10 µM throughout. Also, the concentration at half-maximal activity (AC50) in assay [3] and in assay [4] was over 10 µM throughout. Moreover, the 50% growth inhibitory concentration (GI50) in assay [5] is over 10 µM.

Regarding `Cc1cn2cc(NC(=O)c3ccc(N4C[C@@H](C)N[C@@H](C)C4)c4c3OC(C)(C)O4)cc(F)c2n1` [Compound 656, 7-[(3S,5R)-3,5-dimethylpiperazin-1-yl]-N-(8-fluoro-2-methyl-imidazo[1,2-a]-pyridin-6-yl)-2,2-dimethyl-1,3-benzodioxole-4-carboxamide], the IC50 in assay [1], in assay [2], in assay [3] and in assay [4] was over 10 µM in each case. Besides, the AC50 in assay [3] and in assay [4] was over 10 µM each time. For the same molecule, the GI50 in assay [5] was over 10 µM.

For the molecule `COc1cc2nn(C)cc2cc1NC(=O)c1c(F)cc(N2CCC(NC3CC3)CC2)c2nc(C)sc12` [Compound 661, 4-[4-(cyclopropyl-amino)-1-piperidyl]-6-fluoro-N-(6-methoxy-2-methyl-indazol-5-yl)-2-methyl-1,3-benzothiazole-7-carboxamide], the IC50 in assay [1], in assay [2], in assay [3] and in assay [4] was 1 to 10 µM in each case. Also, the AC50 in assay [3] and in assay [4] was 1 to 10 µM each time. In assay [5], the concentration for 50% growth inhibition (GI50) was in the range of 1 to 10 µM.

In the case of `Cc1cn2cc(NC(=O)c3c(F)cc(N4CCC(NC5CC5)CC4)c4nc(C)sc34)cc(F)c2n1` [Compound 662, 4-[4-(cyclopropyl-amino)-1-piperidyl]-6-fluoro-N-(8-fluoro-2-methyl-imidazo[1,2-a]pyridin-6-yl)-2-methyl-1,3-benzothiazole-7-carboxamide], the 50% inhibitory concentration (IC50) in assay [1], in assay [2], in assay [3] and in assay [4] was over 10 µM in each case. The half-maximal activity concentration (AC50) in assay [3] and in assay [4] was over 10 µM each time. Moreover, in assay [5], the GI50 lay in the range of 1 to 10 µM.

On to `COc1c(NC(=O)c2c(F)cc(N3CCC(NC4CC4)CC3)c3nc(C)sc23)cn2cc(C)nc2c1F` [Compound 663, 4-[4-(cyclopropylamino)-1-piperidyl]-6-fluoro-N-(8-fluoro-7-methoxy-2-methyl-imidazo[1,2-a]-pyridin-6-yl)-2-methyl-1,3-benzothiazole-7-carboxamide], for which the IC50 in assay [1], in assay [2], in assay [3] and in assay [4] was 1 to 10 µM each time. In addition, the concentration at half-maximal activity (AC50) in assay [3] and in assay [4] was 1 to 10 µM in each case. The GI50 in assay [5] fell in the range of 1 to 10 µM.

On to `COc1nc(NC(=O)c2c(F)cc(N3CCC(NC4CC4)CC3)c3nc(C)sc23)cn2cc(C)nc12` [Compound 664, 4-[4-(cyclopropylamino)-1-piperidyl]-6-fluoro-N-(8-methoxy-2-methylimidazo-[1,2-a]pyrazin-6-yl)-2-methyl-1,3-benzothiazole-7-carboxamide], for which the concentration for half-maximal inhibition (IC50) in assay [1], in assay [2], in assay [3] and in assay [4] was 1 to 10 µM in each case. Besides, the AC50 in assay [3] and in assay [4] was 1 to 10 µM in each case. For the same molecule, in assay [5], the GI50 is 1 to 10 µM.

With `Cc1cn2nc(NC(=O)c3c(F)cc(N4CCC(NC5CC5)CC4)c4nc(C)sc34)cc(C)c2n1` [Compound 665, 4-[4-(cyclopropyl-amino)-1-piperidyl]-N-(2,8-dimethylimidazo[1,2-b]-pyridazin-6-yl)-6-fluoro-2-methyl-1,3-benzothiazole-7-carboxamide], the 50% inhibitory concentration (IC50) in assay [1], in assay [2], in assay [3] and in assay [4] was 0.1 to 1 µM each time. The AC50 in assay [3] and in assay [4] was 0.1 to 1 µM in each case. Besides, the GI50 in assay [5] was 0.1 to 1 µM.

As for `COc1nc2c(N3CCC(NC4CC4)CC3)ccc(C(=O)Nc3cc(F)c4nc(C)cn4c3)c2o1` [Compound 666, 4-[4-(cyclopropylamino)-1-piperidyl]-N-(8-fluoro-2-methyl-imidazo[1,2-a]-pyridin-6-yl)-2-methoxy-1,3-benzoxazole-7-carboxamide], the concentration for half-maximal inhibition (IC50) in assay [1] fell in the range of 1 to 10 µM; in assay [2], 0.1 to 1 µM; in assay [3] it was 1 to 10 µM; in assay [4], 0.1 to 1 µM. The figures for the AC50 in assay [3] and in assay [4] were 1 to 10 µM and 0.1 to 1 µM, respectively. The GI50 in assay [5] lay in the range of 1 to 10 µM.

In the case of `COc1nc2c(C(=O)Nc3cn4cc(C)nc(C)c4n3)ccc(N3CCC(NC4CC4)CC3)c2s1` [Compound 667, 7-(4-(cyclopropylamino)-piperidin-1-yl)-N-(6,8-dimethylimidazo[1,2-a]pyrazin-2-yl)-2-methoxy-benzo[d]thiazole-4-carboxamide 2,2,2-trifluoroacetate], the IC50 in assay [1], in assay [2], in assay [3] and in assay [4] was over 10 µM in each case. The AC50 in assay [3] is over 10 µM; in assay [4] it was 1 to 10 µM. In addition, the concentration for 50% growth inhibition (GI50) in assay [5] was in the range of 1 to 10 µM.

For `COc1nc2c(C(=O)Nc3cc4cn(C)nc4cc3OC)ccc(N3CCC(NC4CC4)CC3)c2s1` [Compound 668, 7-(4-(cyclopropylamino)-piperidin-1-yl)-2-methoxy-N-(6-methoxy-2-methyl-2H-indazol-5-yl)benzo[d]-thiazole-4-carboxamide 2,2,2-trifluoroacetate], the IC50 in assay [1] fell in the range of 1 to 10 µM; in assay [2], 0.1 to 1 µM; in assay [3], 1 to 10 µM; in assay [4] it was 0.1 to 1 µM. In addition, the concentration at half-maximal activity (AC50) in assay [3] is 1 to 10 µM; in assay [4], 0.1 to 1 µM. Moreover, the concentration for 50% growth inhibition (GI50) in assay [5] fell in the range of 0.1 to 1 µM.

Regarding `CCNC1CCN(c2ccc(C(=O)Nc3cc4cn(C)nc4cc3OC)c3nc(OC)sc23)CC1` [Compound 669, 7-[4-(ethylamino)-1-piperidyl]-2-methoxy-N-(6-methoxy-2-methyl-indazol-5-yl)-1,3-benzo-thiazole-4-carboxamide], the IC50 in assay [1], in assay [2], in assay [3] and in assay [4] was 1 to 10 µM in each case. For the same molecule, the concentration at half-maximal activity (AC50) in assay [3] lay in the range of 1 to 10 µM; in assay [4], 0.1 to 1 µM. Moreover, the GI50 in assay [5] is 1 to 10 µM.

Usually IC50 stands for the concentration at which inhibition is half-maximal. Broadly, the AC50 is the concentration giving half of the maximal activity seen. By GI50 is commonly meant the concentration at which growth is held to half of that of the control.
